Drawing on US7973071B2, “Substituted gamma lactams as therapeutic agents” (Allergan, Inc., priority 2005, dated 2011), this text covers EC50 and Ki for four molecules.

The target of assay [1] is T1, EP2 (Homo sapiens, UniProt P43116). The assay can be described thus: EP2 cAMP assay. The assay is classed as cell-based.
Assay [2] addresses T1, EP2. In words: Competition binding vs [3H]PGE2, EP2. Also on record: expressed in transfected cells; host or cells: HEK 293. The note with it: HEK 293 cells stably expressing human EP2. As for the experimental part:
Competition binding experiments were performed in a medium containing Hank's balanced salt solution, Hepes 20 mM, pH 7.3, membranes (˜60 μg protein) or 2×10^5 cells from HEK 293 cells stably expressing human EP2 receptors, [^3H]PGE2 (10 nM) and various concentrations of test compounds in a total volume of 300 μl. Reaction mixtures were incubated at 23° C. for 60 min, and were filtered over Whatman GF/B filters under vacuum. Filters were washed three times with 5 ml ice-cold buffer containing 50 mM Tris/HCl (pH 7.3). Non-specific binding was estimated in the presence of excess unlabeled PGE2 (10 μM). Binding data fitted to the binding model for a single class of binding sites, using nonlinear regression analysis. IC50 values thus obtained were converted to Ki using the equation of Ki=(IC50/(1+[L]/KD) where [L] represents PGE2 concentration (10 nM) and KD the dissociation constant for [^3H]PGE2 at human EP2 receptors (40 nM). […]
The cell homogenate was centrifuged at 19000 r.p.m. for 20 min at 4° C. using a Beckman Ti-60 rotor. The resultant pellet was resuspended in TME buffer to give a final 1 mg/ml protein concentration, as determined by Biorad assay. […]
[^3H-] […] 17-phenyl PGF2α and non-specific binding determined with 10^−5M of unlabeled PGE2, or 17-phenyl PGF2α, according to receptor subtype studied.

For assay [3], the target named is T2, hEP3A/Gqi5 (Homo sapiens, UniProt P43115).
T2 construct: expressed in transfected cells; host or cells: HEK-293(EBNA)
T2 sequence (P43115 1-390): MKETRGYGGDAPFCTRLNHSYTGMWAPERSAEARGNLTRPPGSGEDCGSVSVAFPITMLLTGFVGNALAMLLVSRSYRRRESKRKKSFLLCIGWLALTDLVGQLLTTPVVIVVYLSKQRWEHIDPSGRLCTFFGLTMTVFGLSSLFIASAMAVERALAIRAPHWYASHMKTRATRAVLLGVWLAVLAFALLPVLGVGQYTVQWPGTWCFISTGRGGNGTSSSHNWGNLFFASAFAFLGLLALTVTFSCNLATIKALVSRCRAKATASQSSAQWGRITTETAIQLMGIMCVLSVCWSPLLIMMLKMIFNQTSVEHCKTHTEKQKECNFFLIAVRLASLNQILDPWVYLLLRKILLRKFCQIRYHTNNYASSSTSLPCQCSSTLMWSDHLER
In words: FLIPR calcium signal study, EP3A. The class given is cell-based. The note with it: read-out: Other Receptors hEP3A EC50. As to the method: HEK-293(EBNA) cells, stably expressing one type or subtype of recombinant human prostaglandin receptors (prostaglandin receptors expressed: hDP/Gqs5; hEP1; hEP2/Gqs5; hEP3A/Gqi5; hEP4/Gqs5; hFP; hIP; hTP), were cultured in 100 mm culture dishes in high-glucose DMEM medium containing 10% fetal bovine serum, 2 mM 1-glutamine, 250 μg/ml geneticin (G418) and 200 μg/ml hygromycin B as selection markers, and 100 units/ml penicillin G, 100 μg/ml streptomycin and 0.25 μg/ml amphotericin B.
Cells were seeded at a density of 5×10^4 cells per well in Biocoat® Poly-D-lysine-coated black-wall, clear-bottom 96-well plates (Becton-Dickinson) and allowed to attach overnight in an incubator at 37° C. Cells were then washed two times with HBSS-HEPES buffer (Hanks Balanced Salt Solution without bicarbonate and phenol red, 20 mM HEPES, pH 7.4) using a Denley Cellwash plate washer (Labsystems). […]
Cells were excited with an Argon laser at 488 nm, and emission was measured through a 510-570 nm bandwidth emission filter (FLIPR™, Molecular Devices, Sunnyvale, Calif.). […] The peak increase in fluorescence intensity was recorded for each well. […] The peak fluorescence change in each drug-containing well was then expressed relative to the controls. […]

For assay [4], the target named is T3, EP4 receptors (Homo sapiens, UniProt P35408).
T3 construct: expressed in transfected cells; host or cells: HEK-293
T3 sequence (P35408 whole entry): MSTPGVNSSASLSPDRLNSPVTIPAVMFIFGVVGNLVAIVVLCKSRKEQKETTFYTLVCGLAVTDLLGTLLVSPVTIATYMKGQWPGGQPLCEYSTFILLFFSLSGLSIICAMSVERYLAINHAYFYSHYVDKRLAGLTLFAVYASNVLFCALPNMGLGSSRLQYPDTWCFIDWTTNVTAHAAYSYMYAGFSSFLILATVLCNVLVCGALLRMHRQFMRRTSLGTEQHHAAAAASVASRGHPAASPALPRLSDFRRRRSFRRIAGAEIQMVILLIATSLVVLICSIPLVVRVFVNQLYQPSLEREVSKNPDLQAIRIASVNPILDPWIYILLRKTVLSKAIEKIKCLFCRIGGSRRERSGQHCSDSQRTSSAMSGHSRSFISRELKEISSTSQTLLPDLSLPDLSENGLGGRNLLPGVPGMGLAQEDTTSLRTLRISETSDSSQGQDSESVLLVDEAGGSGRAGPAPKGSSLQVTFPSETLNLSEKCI
The assay can be described thus: Radioligand binding vs [3H]PGE2, EP4. As to the method:
HEK-293 cells stably expressing the human or feline FP receptor, or EP1, EP2, or EP4 receptors were washed with TME buffer, scraped from the bottom of the flasks, and homogenized for 30 sec using a Brinkman PT 10/35 polytron. TME buffer was added to achieve a final 40 ml volume in the centrifuge tubes (the composition of TME is 100 mM TRIS base, 20 mM MgCl2, […]; 10N HCl is added to achieve a pH of 7.4).
The cell homogenate was centrifuged at 19000 r.p.m. for 20 min at 4° C. using a Beckman Ti-60 rotor. The resultant pellet was resuspended in TME buffer to give a final 1 mg/ml protein concentration, as determined by Biorad assay. Radioligand binding competition assays vs. [^3H-]17 phenyl PGF2α, (5 nM) were performed in a 1001μvolume for 60 min. Binding reactions were started by adding plasma membrane fraction. The reaction was terminated by the addition of 4 ml ice-cold TRIS-HCl buffer and rapid filtration through glass fiber GF/B filters using a Brandel cell harvester. The filters were washed 3 times with ice-cold buffer and oven dried for one hour.
[^3H-] PGE2 (specific activity 180 Ci mmol) was used as the radioligand for EP receptors. [^3H] 17-phenyl PGF2α was employed for FP receptor binding studies. […] 17-phenyl PGF2α and non-specific binding determined with 10^−5M of unlabeled PGE2, or 17-phenyl PGF2α, according to receptor subtype studied.

pEC50, pKi: −log10 of the molar value.

T1 sequence (P43116 whole entry): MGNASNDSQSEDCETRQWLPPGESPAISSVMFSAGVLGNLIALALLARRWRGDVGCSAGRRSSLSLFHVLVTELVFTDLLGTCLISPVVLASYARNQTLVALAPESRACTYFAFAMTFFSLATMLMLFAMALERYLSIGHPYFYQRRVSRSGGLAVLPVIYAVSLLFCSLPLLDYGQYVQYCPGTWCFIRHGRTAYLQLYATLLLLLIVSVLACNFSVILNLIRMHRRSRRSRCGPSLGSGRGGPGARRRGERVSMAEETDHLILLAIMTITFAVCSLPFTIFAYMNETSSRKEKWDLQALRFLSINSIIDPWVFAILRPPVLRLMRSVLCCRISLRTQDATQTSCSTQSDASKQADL

With `CCCCCCC(O)c1ccc(N2C(=O)CC[C@@H]2CCCc2ccc(C(=O)O)s2)cc1` (stereo partly drawn) [Example 36, 5-(3-{(S)-1-[4-(1-Hydroxy-heptyl)-phenyl]-5-oxo-pyrrolidin-2-yl}-propyl)-thiophene-2-carboxylic acid], in assay [1], the pEC50 was 9.05. This molecule gave a pKi in assay [2] of 8.00.

As for `CCCCCC(O)c1ccc(N2C(=O)CC[C@@H]2COCc2ccc(C(=O)O)s2)cc1` (stereo partly drawn) [Example 9, 5-{(R)-1-[4-(1-Hydroxy-hexyl)-phenyl]-5-oxo-pyrrolidin-2-ylmethoxymethyl}-thiophene-2-carboxylic acid], the pEC50 in assay [1] is 8.52; in assay [3], 6.39.

Regarding `CCCCCCC(O)c1ccc(N2C(=O)CC[C@@H]2COCc2ccc(C(=O)O)s2)cc1` (single isomer, unassigned) [Example 34], the pKi in assay [4] is 5.42.

Regarding `CCCCCCC(O)c1ccc(N2C(=O)CC[C@@H]2COCc2ccc(C(=O)O)s2)cc1` (stereo partly drawn) [Example 13, 5-{(R)-1-[4-(1-Hydroxy-heptyl)-phenyl]-5-oxo-pyrrolidin-2-ylmethoxymethyl}-thiophene-2-carboxylic acid], the pEC50 in assay [3] is 6.28.
